Experimental data taken from PubChem BioAssay AID256 (DTP/NCI, 2004).
Several values for one entry are separate records, joined by “and”; a condition that tells them apart may be missing. Identical values can stand only once. Inconclusive results and toxic doses are left out. The calls were made as follows: active = survival T/C of 150% or more; inactive = T/C below 125% in these data.

System: CD2F1 mice, L1210 leukemia ip, survival T/C
Experiment: NCI In Vivo Anticancer Drug Screen. Data for tumor model L1210 Leukemia (intraperitoneal) in CD2F1 (CDF1) mice
Conditions: higher = longer survival
Method in brief: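 Transplantable tumor in mice; compound-treated vs vehicle-treated groups. Read-out = treated/control ratio of the measured endpoint.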

[1] = endpoint: mean survival time, dose: 12.5 mg/kg/injection, schedule: Q01DX009 (ip), vehicle: saline with Tween-80
[2] = endpoint: mean survival time, dose: 25.0 mg/kg/injection, schedule: Q01DX009 (ip), vehicle: saline with Tween-80
[3] = endpoint: mean survival time, dose: 50.0 mg/kg/injection, schedule: Q01DX009 (ip), vehicle: saline with Tween-80
[4] = endpoint: mean survival time, dose: 100.0 mg/kg/injection, schedule: Q01DX009 (ip), vehicle: saline with Tween-80
[5] = endpoint: mean survival time, dose: 200.0 mg/kg/injection, schedule: Q01DX009 (ip), vehicle: saline with Tween-80
[6] = endpoint: mean survival time, dose: 400.0 mg/kg/injection, schedule: Q01DX009 (ip), vehicle: saline with Tween-80
[7] = endpoint: mean survival time, dose: 100.0 mg/kg/injection, schedule: Q04DX003 (ip), vehicle: saline with Tween-80
[8] = endpoint: mean survival time, dose: 200.0 mg/kg/injection, schedule: Q04DX003 (ip), vehicle: saline with Tween-80
[9] = endpoint: mean survival time, dose: 400.0 mg/kg/injection, schedule: Q04DX003 (ip), vehicle: saline with Tween-80

Measured: T/C

CC1=C(c2ccccc2)OS(=O)(=O)NC1=O
inactive: endpoint: mean survival time, dose: 12.5 mg/kg/injection, schedule: Q01DX009 (ip), vehicle: water 93 % of control | endpoint: mean survival time, dose: 25.0 mg/kg/injection, schedule: Q01DX009 (ip), vehicle: water 91 % of control | endpoint: mean survival time, dose: 50.0 mg/kg/injection, schedule: Q01DX009 (ip), vehicle: water 93 % of control | endpoint: mean survival time, dose: 100.0 mg/kg/injection, schedule: Q01DX009 (ip), vehicle: water 93 % of control | endpoint: mean survival time, dose: 200.0 mg/kg/injection, schedule: Q01DX009 (ip), vehicle: water 88 % of control

CCSC(C(OC(C)=O)C(OC(C)=O)C(COC(C)=O)OC(C)=O)n1cc(F)c(=O)[nH]c1=O (stereo not given)
inactive: endpoint: mean survival time, dose: 12.5 mg/kg/injection, schedule: Q01DX005 (ip), vehicle: other 100 % of control and 104 % of control | endpoint: mean survival time, dose: 25.0 mg/kg/injection, schedule: Q01DX005 (ip), vehicle: other 98 % of control and 105 % of control | endpoint: mean survival time, dose: 50.0 mg/kg/injection, schedule: Q01DX005 (ip), vehicle: other 88 % of control and 98 % of control | endpoint: mean survival time, dose: 100.0 mg/kg/injection, schedule: Q01DX005 (ip), vehicle: other 98 % of control and 105 % of control | endpoint: mean survival time, dose: 200.0 mg/kg/injection, schedule: Q01DX005 (ip), vehicle: other 94 % of control and 107 % of control

O=C(Nc1nncs1)c1cccs1
inactive: [1] 95 % of control and 104 % of control | [2] 93 % of control and 103 % of control | [3] 93 % of control and 94 % of control | [4] 92 % of control and 100 % of control | [5] 118 % of control
active: [6] 172 % of control

COc1ccc2c(c1O)C1=CC(=O)CCC13CCN(C)C3C2 (stereo not given)
inactive: endpoint: mean survival time, dose: 100.0 mg/kg/injection, schedule: Q01DX009 (ip), vehicle: saline 103 % of control | endpoint: mean survival time, dose: 200.0 mg/kg/injection, schedule: Q01DX009 (ip), vehicle: saline 96 % of control

O=C1NC(=O)/C(=C/C=C/c2ccccc2)S1
inactive: [1] 94 % of control and 101 % of control | [2] 95 % of control and 109 % of control | [3] 97 % of control and 101 % of control | [4] 98 % of control and 101 % of control | [5] 95 % of control and 103 % of control | [6] 104 % of control

COC(=O)CC1(C(=O)OC)OC(=O)c2ccccc2N1C (stereo not given)
inactive: [4] 103 % of control | [5] 106 % of control | [6] 101 % of control

CC(=O)OC1CCC2(C)C(=C(C)CC3C2CCC2(C)C(C(C)=O)CCC32)C1 (stereo not given)
inactive: [4] 98 % of control | [5] 95 % of control | [6] 97 % of control

CCOC(=O)N(C)N=NC
inactive: endpoint: median survival time, dose: 3.75 mg/kg/injection, schedule: Q01DX005 (ip), vehicle: saline 110 % of control | endpoint: median survival time, dose: 7.5 mg/kg/injection, schedule: Q01DX005 (ip), vehicle: saline 119 % of control | endpoint: median survival time, dose: 10.8 mg/kg/injection, schedule: Q01DX005 (ip), vehicle: saline 124 % of control | endpoint: median survival time, dose: 50.0 mg/kg/injection, schedule: Q01DX005 (ip), vehicle: saline 86 % of control

CCOC(=O)C(=NCc1ccc2c(c1)OCO2)NO
inactive: [7] 96 % of control | [8] 100 % of control | [9] 101 % of control

O=[N+]([O-])c1ccc(OCc2ccccc2)nc1
inactive: endpoint: mean survival time, dose: 100.0 mg/kg/injection, schedule: Q01DX001 (ip), vehicle: saline with Tween-80 86 % of control | endpoint: mean survival time, dose: 200.0 mg/kg/injection, schedule: Q01DX001 (ip), vehicle: saline with Tween-80 100 % of control | endpoint: mean survival time, dose: 400.0 mg/kg/injection, schedule: Q01DX001 (ip), vehicle: saline with Tween-80 93 % of control

CC1OC1C(=O)C1(O)C(C)C(O)C23OC2(C(O)c2c(O)cccc2C3=O)C1O (stereo not given)
inactive: endpoint: mean survival time, dose: 0.5 mg/kg/injection, schedule: Q01DX009 (ip), vehicle: Klucel (hydroxypropylcellulose) (HPC) 98 % of control and 101 % of control | endpoint: mean survival time, dose: 1.0 mg/kg/injection, schedule: Q01DX009 (ip), vehicle: Klucel (hydroxypropylcellulose) (HPC) 98 % of control and 102 % of control (2×) | endpoint: mean survival time, dose: 2.0 mg/kg/injection, schedule: Q01DX009 (ip), vehicle: Klucel (hydroxypropylcellulose) (HPC) 104 % of control and 105 % of control and 107 % of control | endpoint: mean survival time, dose: 4.0 mg/kg/injection, schedule: Q01DX009 (ip), vehicle: Klucel (hydroxypropylcellulose) (HPC) 114 % of control and 102 % of control and 103 % of control | endpoint: mean survival time, dose: 8.0 mg/kg/injection, schedule: Q01DX009 (ip), vehicle: Klucel (hydroxypropylcellulose) (HPC) 120 % of control and 104 % of control and 109 % of control | endpoint: mean survival time, dose: 16.0 mg/kg/injection, schedule: Q01DX009 (ip), vehicle: Klucel (hydroxypropylcellulose) (HPC) 104 % of control

CCOC(=O)/C=C/C(C(=O)OCC)C(=O)OCC
inactive: [7] 103 % of control | [8] 97 % of control | [9] 101 % of control

COC(=O)C(Cc1ccc(O)cc1)NC(=O)C(C)NC(=O)OCc1ccccc1 (stereo not given)
inactive: [4] 92 % of control | [5] 93 % of control | [6] 88 % of control

O=C(Nc1ccc(Cl)cc1)c1cc(Br)ccc1O
inactive: [7] 92 % of control | [8] 88 % of control | [9] 92 % of control
